In ChEMBL document CHEMBL1156829 (Proc Natl Acad Sci U S A, 2008):

What was measured:
Plasmodium falciparum [1] = assay: NOVARTIS: Inhibition of Plasmodium falciparum 3D7 (drug-susceptible) proliferation in erythrocyte-based infection assay; assay type: functional, organism-based; details: Plasmodium falciparum, 3D7
Plasmodium falciparum [2] = assay: NOVARTIS: Inhibition of Plasmodium falciparum W2 (drug-resistant) proliferation in erythrocyte-based infection assay; assay type: functional, organism-based; details: Plasmodium falciparum, W2; read-out: EC50
[3] = NOVARTIS: Cytotoxicity against human hepatocellular carcinoma cell line (Huh7); assay type: toxicity, cell-based, Huh-7; details: Huh7 cells (hepatocellular carcinoma cell line)

Row | Compound | EC50 (Plasmodium falciparum [1]) | EC50 (Plasmodium falciparum [2]) | CC50 [3]
1 | O=[N+]([O-])c1cc(C(F)(F)F)ccc1N1CCCN(C(=S)Nc2ccccc2)CC1 | 0.0878 µM | 0.103 µM | > 100 µM
2 | CCOc1ccc(C(=O)C(CCC(C[N+]2(C)CCCCCC2)C(=O)c2ccc(OCC)cc2)C[N+]2(C)CCCCCC2)cc1 (stereo unspecified) | 0.615 µM | 0.693 µM | > 100 µM
3 | COc1ccc(C2CC(=O)C3=C(C2)NC(C)=C(C(=O)OC2CCCC2)C3c2ccccc2)cc1 (stereo unspecified) | 0.124 µM | 0.0335 µM | > 100 µM
4 | C=CCN1/C(=C/C=C/c2sc3ccccc3[n+]2CC=C)Sc2ccccc21 | 2.03 µM | 0.292 µM | > 10 µM
5 | CN(CCCNc1ccnc2cc(Cl)ccc12)S(=O)(=O)c1ccc(Br)cc1 | 0.186 µM | 0.295 µM | 6.88 µM
6 | C1CCC(CN2CCc3nc(N4CCCCC4)sc3C2)CC1 | 0.254 µM | 0.0832 µM | > 10 µM
7 | Cc1ccc(S(=O)(=O)NNC(=O)C2CCC(c3ccccc3)CC2)c2nsnc12 (stereo unspecified) | 0.727 µM | > 1.25 µM | > 10 µM
8 | CCCCCN(C(=O)CCc1ccccc1)C(CC)c1nc2ccccc2c(=O)n1-c1ccc(Cl)cc1C (stereo unspecified) | > 1 µM | 1.74 µM | > 0.305 µM
9 | NC(=O)C1CCN(S(=O)(=O)c2cc(Br)c(Br)s2)CC1 | > 0.751 µM | > 1.25 µM | > 10 µM
10 | CCOC(=O)C1=C(C)NC2=C(C(=O)C(C(=O)OCC)C(c3cccc(OC)c3)C2)C1c1ccc([N+](=O)[O-])cc1 (stereo unspecified) | 0.0542 µM | 0.0372 µM | > 54.6 µM
11 | O=C1CCC(c2ccc(Cl)c(Cl)c2)c2ccc(O)cc21 (stereo unspecified) | 0.449 µM | > 0.914 µM | > 9.27 µM
12 | Cc1ccc(OCCCCN2CCOCC2)c([N+](=O)[O-])c1 | > 0.564 µM | > 1.29 µM | > 10 µM
13 | CCN1CCN(c2cc(C)c3cc(NC(=O)c4cccc([N+](=O)[O-])c4)ccc3n2)CC1 | 0.096 µM | 0.267 µM | 20.3 µM
14 | O=C(CCn1c(=O)[nH]c2ccccc21)NCC1Cc2cccc(-c3ccncc3)c2O1 (stereo unspecified) | 3.25 µM | 2.98 µM | > 100 µM
15 | COC(=O)C1CCCN1S(=O)(=O)c1ccc2ccccc2c1 (stereo unspecified) | > 4.94 µM | 2.82 µM | > 100 µM
16 | O=C1c2ccccc2C(=O)c2c1ccc1nonc21 | 0.121 µM | 0.0886 µM | > 10 µM
17 | COc1ccc(Nc2ncnc3[nH]c(-c4cccc([N+](=O)[O-])c4)cc23)cc1 | 2.49 µM | 2.5 µM | > 100 µM
18 | Cc1noc(C)c1S(=O)(=O)N(CC(C)C)C(C(=O)NC(CN1CCCC1)c1ccccc1)c1ccccc1 (stereo unspecified) | 0.775 µM | 1.66 µM | 2.82 µM
19 | C=CCNC(=O)c1cc2c(=O)n3cccc(C)c3nc2n(CCc2ccccc2)c1=N | 0.702 µM | 0.982 µM | > 100 µM
20 | CN(CCCNc1ccnc2cc(Cl)ccc12)C(=O)c1ccc(C(F)(F)F)cc1 | 0.166 µM | 0.319 µM | 64.6 µM
21 | CN(C)c1cc[n+](CC(=O)c2cccs2)cc1 | 0.649 µM | 0.688 µM | > 100 µM
22 | CCOC(=O)C1=C(C)NC2=C(C(=O)CCC2)C1c1cc(Br)c(O)c(OCC)c1 (stereo unspecified) | > 0.51 µM | > 1.76 µM | > 10 µM
23 | CC(C)CCNC(=O)C1CSC(c2ccc(F)cc2)N1C(=O)c1ccc(Cl)cc1Cl (stereo unspecified) | > 12.5 µM | 8.18 µM | > 100 µM

Row | Compound | EC50 (Plasmodium falciparum [1]) | EC50 (Plasmodium falciparum [2]) | CC50 [3]
24 | Cc1ccc2nc3c(c(NCCCN(C)C)c2c1)CCC3 | 0.935 µM | 1.56 µM | > 10 µM
25 | c1ccc(CCNC2CCN(Cc3ccccc3)CC2)cc1 | 1.47 µM | 0.5 µM | 43.5 µM
26 | CCOc1ccc(S(=O)(=O)c2cn(Cc3ccccc3C)c3ccc(OC)cc3c2=O)cc1 | 6.27 µM | 3.86 µM | > 100 µM
27 | CC(C(=O)N1CCN(C(c2ccccc2)c2ccccc2)CC1)N(CCN1CCOCC1)S(=O)(=O)c1ccccn1 (stereo unspecified) | > 0.819 µM | 0.287 µM | > 10 µM
28 | COc1ccccc1NC1=CC(=NS(=O)(=O)c2ccccc2)c2ccccc2C1=O | 0.225 µM | 0.288 µM | 13.6 µM
29 | COc1ccc(S(=O)(=O)Nc2ccc(N3CCC(Cc4ccccc4)CC3)c(C(=O)NC(C)C)c2)cc1 | 2.12 µM | 2.43 µM | > 100 µM
30 | CCOC(=O)c1cnc2ccccc2c1Nc1ccc(OC)c(OC)c1 | 0.0665 µM | 0.0846 µM | 85.4 µM
31 | Cc1cc(Nc2cc(Cl)cc(Cl)c2)n2nc(C)nc2n1 | 1.33 µM | 1.87 µM | > 100 µM
32 | CC(C)N1CC[C@@H](N2CCN(c3cccc(C(F)(F)F)c3)CC2)[C@@H](CCC(=O)N(C)C2CCN(C)CC2)C1 | > 1.04 µM | 0.285 µM | 5.13 µM
33 | CCCNC(=O)c1cc(NC(=O)c2cc(C(F)(F)F)cc(C(F)(F)F)c2)ccc1N1CCCCC1 | > 1.56 µM | > 0.816 µM | 10.2 µM
34 | CCCC(CCC)C(=O)Nc1ccc2c(c1)N(C(=O)CCCl)c1ccccc1CC2 | 0.416 µM | 2.58 µM | > 100 µM
35 | COc1cccc(C(=O)N(CCCC(C)Nc2cc(OC)cc3cccnc23)Cc2ccc(F)cc2)c1 (stereo unspecified) | 0.666 µM | 0.154 µM | 3.73 µM
36 | Cc1ccc(C)c(Nc2nc3c(s2)CCCC3)c1 | > 12.5 µM | 4.5 µM | > 100 µM
37 | Cc1cc(C)[n+](C)n1CC(O)Cn1c2ccccc2c2ccccc21 (stereo unspecified) | 1.22 µM | 0.691 µM | > 100 µM
38 | COc1ccccc1C1CC(=O)N2CN(Cc3ccccc3)CSC2=C1C#N (stereo unspecified) | 0.599 µM | 0.337 µM | > 100 µM
39 | C=C[C@H]1CN2CC[C@H]1C[C@H]2[C@H](O)c1ccnc2ccc(OC)cc12 [QUININE] | 0.993 µM | 1.32 µM | > 6.25 µM
40 | CCCCC(CC)C(=O)N1CCN(C(C)c2nc3ccc(Cl)cc3c(=O)n2C)CC1 (stereo unspecified) | > 1.49 µM | 1.81 µM | > 10 µM
41 | O=C(C(Cc1ccc(O)cc1)c1ccccc1)N1CCC(n2c(Cc3ccc(F)cc3)nc3cccnc32)CC1 (stereo unspecified) | 0.351 µM | 0.138 µM | > 100 µM
42 | COc1ccc(C2C(C(=O)OC3CCCCC3)=C(C)Nc3nnnn32)cc1 (stereo unspecified) | > 10 µM | > 11.2 µM | > 74.1 µM
43 | CCN(CC)CCCN(Cc1cc2ccc(C)cc2[nH]c1=O)C(=S)Nc1cccc(Cl)c1 | 0.7 µM | 0.176 µM | 22.1 µM
44 | CCN(CC)c1ccc(C=NNC(=O)c2ccc(Nc3nc(-c4ccccc4)cs3)cc2)c(O)c1 | 0.151 µM | 0.0548 µM | 20.1 µM
45 | CCN(CC)CCCNC(=S)N(Cc1cc2ccc(OC)cc2[nH]c1=O)C1CCCCC1 | 4.03 µM | 1.12 µM | 40.8 µM
46 | Cc1ccc(N=C2S/C(=C\c3ccccc3)C(=O)N2c2ccc(C)cc2)cc1 | > 1.74 µM | 0.404 µM | > 10 µM

Row | Compound | EC50 (Plasmodium falciparum [1]) | EC50 (Plasmodium falciparum [2]) | CC50 [3]
47 | Cc1ccc(Cl)cc1-n1c(SCc2ccccc2)nnc1C(Cc1ccccc1)NC(=O)C12CC3CC(CC(C3)C1)C2 (stereo unspecified) | > 1.25 µM | > 0.954 µM | 1.13 µM
48 | O=S(=O)(c1ccc(Br)s1)N1CCN(c2ccccc2)CC1 | 0.411 µM | 0.4 µM | > 10 µM
49 | CCOC(=O)C(=O)N1c2ccc(OCC)cc2-c2c(ssc2=S)C1(C)C | 0.252 µM | 0.0253 µM | > 100 µM
50 | CCCCCCCCCC(=O)N(C)CCCNc1ccnc2cc(Cl)ccc12 | 0.126 µM | 0.206 µM | 5.71 µM
51 | COc1cc2c(cc1OC)C1Cc3ccc(OC)c(OC)c3CN1CC2 (stereo unspecified) | 2.6 µM | 0.871 µM | > 100 µM
52 | CSC(Cl)=C(NC(C)=O)[P+](c1ccccc1)(c1ccccc1)c1ccccc1 | 0.126 µM | 0.257 µM | > 100 µM
53 | COc1ccc(C2CC(=O)C3=C(C2)NC(C)=C(C(=O)OC(C)C)C3c2cccc(Cl)c2Cl)cc1OC (stereo unspecified) | 0.0676 µM | 0.0181 µM | > 87.3 µM
54 | CCOC(=O)c1cnc2ccc(C)cc2c1NCCCN1CCOCC1 | 0.9 µM | 0.827 µM | > 100 µM
55 | Cc1c(/C=C2\SC(=Nc3ccccc3F)N(C3CCCCC3)C2=O)c2ccccc2n1CC(N)=O | 0.301 µM | 0.961 µM | > 100 µM
56 | O=C(NCCCCNc1ccnc2cc(Cl)ccc12)c1cccc(C(F)(F)F)c1 | 0.171 µM | < 0.0138 µM | > 10 µM
57 | CN(C)c1ccc(C=CC(=O)NC(=O)c2ccccc2O)cc1 | 0.118 µM | 0.358 µM | > 100 µM
58 | Cc1nc(N2CCCCC2)c2c(C)c(C(=O)N3CCN(c4ccccc4F)CC3)sc2n1 | > 1.54 µM | 1.3 µM | > 10 µM
59 | Fc1ccc(C2(CCCSc3nnc4c(n3)[nH]c3ccccc34)OCCO2)cc1 | 0.4 µM | 0.141 µM | > 100 µM
60 | C1=C(c2ccc(CN3CCCCC3)cc2)N2CCN=C2c2ccccc21 | 0.278 µM | 0.579 µM | 4.14 µM
61 | CCOc1ccc2cc(C#N)c(SCC(=O)N3CC(=O)Nc4ccccc43)nc2c1 | > 1.11 µM | > 1.25 µM | > 10 µM
62 | O=C(Nc1cccc(-c2nc3ccccc3[nH]2)c1)c1ccccc1[N+](=O)[O-] | > 1.72 µM | > 0.772 µM | > 6 µM
63 | O=C(NCc1cc2cc3c(cc2nc1Cl)OCO3)c1ccco1 | > 0.586 µM | > 1.25 µM | > 10 µM
64 | O=C(Cn1c2ccccc2c(=O)c2ccccc21)Nc1ccc([N+](=O)[O-])c(Br)c1 | 1.11 µM | 0.632 µM | > 100 µM
65 | COC(=O)[C@@H]1C[C@@H](NC(=O)c2ccc(OC)cc2OC)CN1Cc1cc(C)ccc1C | 1.07 µM | 1.32 µM | > 100 µM
66 | CC1=C(C(=O)Nc2ccc(C)cc2C)C(c2ccc([N+](=O)[O-])cc2)n2ncc(C(=O)Nc3ccc(F)cc3)c2N1 (stereo unspecified) | 0.585 µM | 0.514 µM | > 100 µM
67 | Cc1cc2c(Nc3cccc(Cl)c3C)ncnc2s1 | 1.91 µM | 1.19 µM | > 100 µM
